Experiments:
[1] = biological target: T1, human dopamine D2 receptor (Homo sapiens, UniProt P14416); details: 0.7 nM ^3 H-raclopride; transfected COS-7 cells
Description: Expression and Transfection. […] COS-7 cells were plated at a density of 1×10^6 cells/10 cm dish.
(§1) Radioligand binding. Cells were scraped 48-72 hours after transfection into 10 ml of PBS/10 cm dish and pelleted at 1000× g. Cells were resuspended in 10 mM Tris, 1 mM EDTA, 5 mM MgCl2 and homogenized with a polytron (Brinkman). A total particulate fraction was prepared by centrifugation at 45,000× g for 15 min. […] Reactions were initiated by addition of 0.4 ml of tissue in binding buffer to 0.1 ml of drugs. […] Reactions were terminated by filtering membranes through Whatman GFC filters using a cell harvester (Brandel). Data were analyzed by nonlinear regression on a VAX II computer using the program DATAPLOT (distributed by the National Technical Information Service).

[2] = biological target: T1, human dopamine D2 receptor; assay: Saturation radioligand binding to membranes of transfected COS-7 cells; design: rescreened with the S1 probe alone to identify those most likely to be full length; expressed in transfected cells; host or cells: COS-7 cells (transient, 16A-pCD-PS DNA)
Description: COS-7 cells were plated at a density of 1×10^6 cells/10 cm dish. One to two days after plating, cells were transfected with 16A-pCD-PS DNA using a modification of the calcium phosphate precipitation procedure.
as §1

T1 sequence (P14416 1-414 isoform P14416-2): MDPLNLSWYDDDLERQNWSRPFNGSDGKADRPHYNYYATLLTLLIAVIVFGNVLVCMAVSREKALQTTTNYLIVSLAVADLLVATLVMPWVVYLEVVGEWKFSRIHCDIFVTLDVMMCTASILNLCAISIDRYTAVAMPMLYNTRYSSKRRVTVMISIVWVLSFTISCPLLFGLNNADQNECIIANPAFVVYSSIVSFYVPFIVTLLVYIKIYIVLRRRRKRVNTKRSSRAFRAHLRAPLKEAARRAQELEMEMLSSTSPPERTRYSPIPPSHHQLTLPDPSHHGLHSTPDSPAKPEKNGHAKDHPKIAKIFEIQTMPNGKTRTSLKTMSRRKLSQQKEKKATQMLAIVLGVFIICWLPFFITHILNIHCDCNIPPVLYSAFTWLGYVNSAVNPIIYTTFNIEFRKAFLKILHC

## CCN1CCC[C@@H]1CNC(=O)c1cc(S(N)(=O)=O)ccc1OC [(+)sulphride]
[1]
  n (hill number): 1.0 ± 0.1

## CCN1CCC[C@H]1CNC(=O)c1cc(S(N)(=O)=O)ccc1OC [(-)sulphride]
[1]
  n (hill number): 1.2 ± 0.2

## CCN1CCC[C@H]1CNC(=O)c1c(O)c(Cl)cc(Cl)c1OC [^3 H-raclopride]
[2]; COS-7 transfected with 16A-pCD-PS
  maximum number of binding sites: 800±110 fmole/mg protein

## CN1CCc2cccc3c2[C@H]1Cc1ccc(O)c(O)c1-3 [apomorphine]
[1]
  n (hill number): 1.0 ± 0.1

## CN(C)CCCN1c2ccccc2Sc2ccc(Cl)cc21 [chlorpromazine]
[1]
  n (hill number): 0.9 ± 0.1

## NCCc1ccc(O)c(O)c1 [dopamine]
[1]
  n (hill number): 1.1 ± 0.1

## ^3 H-SCH23396
[2]; concentrations up to 5 nM, displaced by chlorpromazine
  displacable binding to transfected COS-7 cells: did not show significant displacable binding
